From US20200288711A1, “Pyrimidin-4-Carbamate or Urea Derivatives As Herbicides” (Syngenta Participations AG, priority 2017, published 2020) come the findings set out here.

Holding throughout (assay type): in vivo
Experiment [1] has as its system Abutilon theophrasti (ABUTH). In words: B1 pre-emergence herbicidal activity. Conditions: Test 1a, rate 1000 g/ha, evaluated after 13 days, score 0-5 (5=total damage, 0=no damage). Also noted: key: 5=total damage to plant; 0=no damage to plant. The procedure:
(§1) Seeds of a variety of test species were sown in standard soil in pots: Triticum aestivium (TRZAW), Avena fatua (AVEFA), Alopecurus myosuroides (ALOMY), Echinochloa crus-galli (ECHCG), Lolium perenne (LOLPE), Zea mays (ZEAMX), Abutilon theophrasti (ABUTH), Amaranthus retroflexus (AMARE) and Setaria faberi (SETFA). After cultivation for one day (pre-emergence) under controlled conditions in a glasshouse (at 24/16° C., day/night; 14 hours light; 65% humidity), the plants were sprayed with an aqueous spray solution derived from the formulation of the technical active ingredient in acetone/water (50:50) solution containing 0.5% Tween 20 (polyoxyethelyene sorbitan monolaurate, CAS RN 9005-64-5). The test plants were then grown in a glasshouse under controlled conditions (at 24/16° C., day/night; 14 hours light; 65% humidity) and watered twice daily. After 13 days, the test was evaluated (5=total damage to plant; 0=no damage to plant).

Experiment [2] concerns Zea mays (ZEAMX). In words: B1 pre-emergence herbicidal activity. Also noted: key: 5=total damage to plant; 0=no damage to plant. Conditions: Test 1a, rate 1000 g/ha, evaluated after 13 days, score 0-5 (5=total damage, 0=no damage). The protocol: as §1
Experiment [3] has as its system Lolium perenne (LOLPE). Kind of experiment: B1 pre-emergence herbicidal activity. Also noted: key: 5=total damage to plant; 0=no damage to plant. Conditions: rate 1000 g/ha, evaluated after 13 days, score 0-5 (5=total damage, 0=no damage); for Control of weed species after pre-emergence application, LOLPE: Test 1a. The procedure: as §1
Experiment [4] deals with Amaranthus retroflexus (AMARE). Kind of experiment: B1 pre-emergence herbicidal activity. Also noted: key: 5=total damage to plant; 0=no damage to plant. To be noted: Test 1a, rate 1000 g/ha, evaluated after 13 days, score 0-5 (5=total damage, 0=no damage). The protocol:
as §1

Experiment [5] deals with Setaria faberi (SETFA). Kind of experiment: B2 post-emergence herbicidal activity. Also noted: key: 5=total damage to plant; 0=no damage to plant. Conditions: rate 1000 g/ha, evaluated after 13 days, score 0-5 (5=total damage, 0=no damage). The protocol:
(§2) Seeds of a variety of test species were sown in standard soil in pots: Triticum aestivium (TRZAW), Avena fatua (AVEFA), Alopecurus myosuroides (ALOMY), Echinochloa crus-galli (ECHCG), Lolium perenne (LOLPE), Zea mays (ZEAMX), Abutilon theophrasti (ABUTH), Amaranthus retroflexus (AMARE) and Setaria faberi (SETFA). After 8 days cultivation (post-emergence) under controlled conditions in a glasshouse (at 24/16° C., day/night; 14 hours light; 65% humidity), the plants were sprayed with an aqueous spray solution derived from the formulation of the technical active ingredient in acetone/water (50:50) solution containing 0.5% Tween 20 (polyoxyethelyene sorbitan monolaurate, CAS RN 9005-64-5). The test plants were then grown in a glasshouse under controlled conditions (at 24/16° C., day/night; 14 hours light; 65% humidity) and watered twice daily. After 13 days, the test was evaluated (5=total damage to plant; 0=no damage to plant).

In experiment [6] the test system is Zea mays (ZEAMX). In words: B2 post-emergence herbicidal activity. Also noted: key: 5=total damage to plant; 0=no damage to plant. To be noted: Test 2a, rate 1000 g/ha, evaluated after 13 days, score 0-5 (5=total damage, 0=no damage). The procedure: as §2
Experiment [7] deals with Lolium perenne (LOLPE). In words: B2 post-emergence herbicidal activity. Conditions: rate 1000 g/ha, evaluated after 13 days, score 0-5 (5=total damage, 0=no damage). Also noted: key: 5=total damage to plant; 0=no damage to plant. The procedure: as §2
Experiment [8] relates to Echinochloa crus-galli (ECHCG). Kind of experiment: B2 post-emergence herbicidal activity. Also noted: key: 5=total damage to plant; 0=no damage to plant. Conditions: rate 1000 g/ha, evaluated after 13 days, score 0-5 (5=total damage, 0=no damage). The procedure: as §2
In experiment [9] the test system is Amaranthus retroflexus (AMARE). In words: B2 post-emergence herbicidal activity. Also noted: key: 5=total damage to plant; 0=no damage to plant. To be noted: Test 2a, rate 1000 g/ha, evaluated after 13 days, score 0-5 (5=total damage, 0=no damage). The protocol: as §2
Experiment [10] deals with Setaria faberi (SETFA). Kind of experiment: B1 pre-emergence herbicidal activity. Conditions: rate 1000 g/ha, evaluated after 13 days, score 0-5 (5=total damage, 0=no damage); for Control of weed species after pre-emergence application, SETFA: Test 1a. The protocol:
as §1

In experiment [11] the test system is Echinochloa crus-galli (ECHCG). In words: B1 pre-emergence herbicidal activity. Conditions: rate 1000 g/ha, evaluated after 13 days, score 0-5 (5=total damage, 0=no damage); for Control of weed species after pre-emergence application, ECHCG: Test 1a. The procedure: as §1
Experiment [12] relates to Abutilon theophrasti (ABUTH). Kind of experiment: B2 post-emergence herbicidal activity. Conditions: Test 2a, rate 1000 g/ha, evaluated after 13 days, score 0-5 (5=total damage, 0=no damage). The procedure:
as §2

In experiment [13] the test system is Avena fatua (AVEFA). In words: B1 pre-emergence herbicidal activity. Also noted: key: 5=total damage to plant; 0=no damage to plant. To be noted: Test 1b, rate 1000 g/ha, evaluated after 13 days, score 0-5 (5=total damage, 0=no damage). The protocol:
as §1

The test system of experiment [14] is Triticum aestivium (TRZAW). In words: B1 pre-emergence herbicidal activity. To be noted: Test 1b, rate 1000 g/ha, evaluated after 13 days, score 0-5 (5=total damage, 0=no damage). Also noted: key: 5=total damage to plant; 0=no damage to plant. The protocol:
as §1

Experiment [15] deals with Alopecurus myosuroides (ALOMY). In words: B1 pre-emergence herbicidal activity. Conditions: Test 1b, rate 1000 g/ha, evaluated after 13 days, score 0-5 (5=total damage, 0=no damage). Also noted: key: 5=total damage to plant; 0=no damage to plant. The procedure:
as §1

The subject of experiment [16] is Avena fatua (AVEFA). In words: B2 post-emergence herbicidal activity. Also noted: key: 5=total damage to plant; 0=no damage to plant. To be noted: Test 2b, rate 1000 g/ha, evaluated after 13 days, score 0-5 (5=total damage, 0=no damage). The protocol: as §2
Experiment [17] relates to Triticum aestivium (TRZAW). Kind of experiment: B2 post-emergence herbicidal activity. To be noted: Test 2b, rate 1000 g/ha, evaluated after 13 days, score 0-5 (5=total damage, 0=no damage). Also noted: key: 5=total damage to plant; 0=no damage to plant. The protocol: as §2
Experiment [18] has as its system Alopecurus myosuroides (ALOMY). In words: B2 post-emergence herbicidal activity. Also noted: key: 5=total damage to plant; 0=no damage to plant. Conditions: Test 2b, rate 1000 g/ha, evaluated after 13 days, score 0-5 (5=total damage, 0=no damage). The protocol:
as §2

For the molecule `Cc1nc(-c2cncc(F)c2)ncc1NC(=O)OC(C)(C)C` [Compound E1, tert-butyl N-[2-(5-fluoro-3-pyridyl)-4-methyl-pyrimidin-5-yl]carbamate], the “Control of weed species after pre-emergence application, ABUTH” value in experiment [1] worked out at 0. Further, the “Control of weed species after pre-emergence application, ZEAMX” value with Zea mays (ZEAMX) [2] is recorded as 5. Moreover, the “Control of weed species after pre-emergence application, LOLPE” value in the experiment on Lolium perenne (LOLPE) [3] worked out at 1. Further, the “Control of weed species after pre-emergence application, AMARE” value in [4] was 0. Further, in the experiment with Setaria faberi (SETFA) [5] (Test 2a), the “Control of weed species after post-emergence application, SETFA” value is reported as 5. For the same molecule, the “Control of weed species after post-emergence application, ZEAMX” value with Zea mays (ZEAMX) [6] turned out to be 5. Moreover, in the experiment on Lolium perenne (LOLPE) [7] (Test 2a), the “Control of weed species after post-emergence application, LOLPE” value is 2. For the same molecule, the “Control of weed species after post-emergence application, ECHCG” value in experiment [8] (Test 2a) is listed as 4. For the same molecule, in experiment [9], the “Control of weed species after post-emergence application, AMARE” value is 2. In the experiment with Setaria faberi (SETFA) [10], the “Control of weed species after pre-emergence application, SETFA” value is 4. In addition, in experiment [11], the “Control of weed species after pre-emergence application, ECHCG” value turned out to be 4. For the same molecule, the “Control of weed species after post-emergence application, ABUTH” value in experiment [12] amounted to 1.

On to `Cc1nc(-c2cncc(F)c2)ncc1N(C)C(=O)OC(C)(C)C` [Compound E2, tert-butyl N-[2-(5-fluoro-3-pyridyl)-4-methyl-pyrimidin-5-yl]-N-methyl-carbamate], for which the “Control of weed species after pre-emergence application, ABUTH” value in [1] is reported as 0. The “Control of weed species after pre-emergence application, ZEAMX” value in the experiment with Zea mays (ZEAMX) [2] is 4. Also, in the experiment on Lolium perenne (LOLPE) [3], the “Control of weed species after pre-emergence application, LOLPE” value came to 0. In addition, in [4], the “Control of weed species after pre-emergence application, AMARE” value came to 0. Besides, the “Control of weed species after post-emergence application, SETFA” value in the experiment with Setaria faberi (SETFA) [5] (Test 2a) amounted to 5. In the experiment with Zea mays (ZEAMX) [6], the “Control of weed species after post-emergence application, ZEAMX” value was determined as 5. The “Control of weed species after post-emergence application, LOLPE” value in the experiment with Lolium perenne (LOLPE) [7] (Test 2a) was determined as 2. Also, in [8] (Test 2a), the “Control of weed species after post-emergence application, ECHCG” value amounted to 5. Also, in experiment [9], the “Control of weed species after post-emergence application, AMARE” value is 0. Also, the “Control of weed species after pre-emergence application, SETFA” value in the experiment on Setaria faberi (SETFA) [10] came out at 4. Moreover, in [11], the “Control of weed species after pre-emergence application, ECHCG” value was found to be 2. Moreover, in [12], the “Control of weed species after post-emergence application, ABUTH” value came to 1.

As to `CC(C)OC(=O)N(C(=O)OC(C)C)c1cnc(-c2cncc(F)c2)nc1C(F)(F)F` [Compound E22], the “Pre-emergence herbicidal activity, AVEFA” value with Avena fatua (AVEFA) [13] is 0. The “Pre-emergence herbicidal activity, LOLPE” value in the experiment with Lolium perenne (LOLPE) [3] (Test 1b) is 0. Moreover, the “Pre-emergence herbicidal activity, TRAZW” value in experiment [14] is given as 0. For the same molecule, the “Pre-emergence herbicidal activity, ALOMY” value in experiment [15] was found to be 0. Also, the “Control of weed species after post-emergence application, AVEFA” value with Avena fatua (AVEFA) [16] stood at 0. Also, in the experiment on Setaria faberi (SETFA) [5] (Test 2b), the “Control of weed species after post-emergence application, SETFA” value stood at 1. In addition, in the experiment on Lolium perenne (LOLPE) [7] (Test 2b), the “Control of weed species after post-emergence application, LOLPE” value is reported as 4. The “Control of weed species after post-emergence application, TRAZW” value in experiment [17] is given as 4. Further, the “Control of weed species after post-emergence application, ECHCG” value in experiment [8] (Test 2b) came to 5. In [18], the “Control of weed species after post-emergence application, ALOMY” value is 0. The “Pre-emergence herbicidal activity, SETFA” value in the experiment with Setaria faberi (SETFA) [10] (Test 1b) came out at 4. Besides, the “Pre-emergence herbicidal activity, ECHCG” value in [11] (Test 1b) stood at 3.
